# Test results from ChEMBL document CHEMBL1201862, “PubChem BioAssay data set” (2004).
# Active and inactive are the calls of the source.
# Legend:
# Estrogen receptor = target: T1, Estrogen receptor (Homo sapiens, UniProt P03372);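 also: potency for inhibiting coactivator peptide recruitment to the receptor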
# T1 sequence (P03372 whole entry): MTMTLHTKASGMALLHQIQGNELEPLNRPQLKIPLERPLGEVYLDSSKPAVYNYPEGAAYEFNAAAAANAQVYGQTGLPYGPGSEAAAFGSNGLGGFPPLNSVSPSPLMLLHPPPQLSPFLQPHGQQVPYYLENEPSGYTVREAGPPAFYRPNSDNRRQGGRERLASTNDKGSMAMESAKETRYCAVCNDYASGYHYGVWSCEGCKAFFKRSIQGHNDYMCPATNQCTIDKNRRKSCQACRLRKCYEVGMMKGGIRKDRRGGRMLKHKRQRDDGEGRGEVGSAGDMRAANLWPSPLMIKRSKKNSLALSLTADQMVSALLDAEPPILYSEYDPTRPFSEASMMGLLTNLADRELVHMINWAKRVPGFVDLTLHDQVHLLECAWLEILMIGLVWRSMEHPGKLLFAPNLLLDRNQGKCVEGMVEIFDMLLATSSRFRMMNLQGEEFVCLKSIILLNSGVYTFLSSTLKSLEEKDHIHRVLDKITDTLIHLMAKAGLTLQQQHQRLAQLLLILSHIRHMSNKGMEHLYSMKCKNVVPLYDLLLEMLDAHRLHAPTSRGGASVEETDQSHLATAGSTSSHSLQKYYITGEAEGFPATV
# Mu-type opioid receptor = Mu-type opioid receptor (Homo sapiens, UniProt P35372); assay type: functional, cell-based;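 also: U2OS cells with beta-arrestin recruitment to OPRM1 by beta-gal complementation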
# [1] = target: 5-hydroxytryptamine receptor 2A (Mus musculus, UniProt P35363); assay type: functional, cell-based;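 also: CHO-K1 cells with tagged receptor and beta-arrestin; agonist potency measured as compound-induced activation of the receptor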
# Streptokinase A = target: T2, Streptokinase A (Streptococcus pyogenes serotype M1, UniProt P10520); experiment: viability-normalized secreted streptokinase activity reduction – plasminogen activation absorbance, OD405, dose response (AID 1914); assay type: functional, Streptococcus pyogenes M1 GAS;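 also: secreted streptokinase activity via plasminogen activation per viability signal from cell pellet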
# T2 sequence (P10520 whole entry): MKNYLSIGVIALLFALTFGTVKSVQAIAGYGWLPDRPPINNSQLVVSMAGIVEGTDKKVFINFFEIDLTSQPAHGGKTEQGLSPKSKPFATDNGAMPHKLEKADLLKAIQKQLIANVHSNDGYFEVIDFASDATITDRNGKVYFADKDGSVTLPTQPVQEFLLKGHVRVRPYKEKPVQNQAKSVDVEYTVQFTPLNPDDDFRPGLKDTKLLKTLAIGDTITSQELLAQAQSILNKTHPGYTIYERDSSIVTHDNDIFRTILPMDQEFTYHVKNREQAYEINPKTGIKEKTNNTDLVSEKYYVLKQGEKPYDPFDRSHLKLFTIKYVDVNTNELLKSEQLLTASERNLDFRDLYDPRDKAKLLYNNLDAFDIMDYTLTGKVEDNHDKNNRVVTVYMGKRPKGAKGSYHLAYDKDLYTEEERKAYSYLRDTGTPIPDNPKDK
# [2] = target: Disintegrin and metalloproteinase domain-containing protein 17 (Homo sapiens, UniProt P78536); experiment: inhibition of ADAM17 substrate cleavage – biochemical, quenched FRET substrate, counter-screen for ADAM10 exosite inhibitor project, dose response (AID 743253)
# Streptococcus = experiment: GAS UMAA2166 growth inhibition – luminescence, BacTiterGlo, counter-screen for streptokinase expression inhibitor project, dose response (AID 1915); assay type: functional, organism-based;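 also: potency for reduction of bacterial viability or growth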
# [3] = test system: Streptococcus sp. 'group A'; experiment: Streptococcus pyogenes SK(-)GAS viability under kanamycin – luminescence, BacTiterGlo, confirmation, counter-screen for streptokinase expression inhibitor project, dose response (AID 1900); assay type: functional, organism-based
# Albumin = Albumin (Bos taurus, UniProt P02769); experiment: Counterscreen for inhibitors of T-cell receptor (TCR)-CD3 interaction: Fluorescence-based biochemical high throughput dose response assay to identify inhibitors of T-cell receptor (TCR)-CD3 interaction using a TAMRA-labeled BSA probe.; assay type: functional
# [4] = HPDE-C7 pancreatic duct cell viability loss – fluorescence, HTS (AID 430); assay type: functional, cell-based; settings: Homo sapiens
# [5] = viability loss of HPDE-C7K cells – cell-based, fluorescence, HTS, primary screen (AID 431); assay type: functional; settings: Homo sapiens
# H9c2 = experiment: cells; assay type: functional, cell-based; settings: Rattus norvegicus, H9c2, Myocardium;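 also: confirmatory concentration-response retest of ultra-high-throughput screening hits for modulation of myocardial damage; cell death induced by hydrogen peroxide oxidative stress; compound pretreatment for 60 min then peroxide exposure for 2 h; potency is for protecting the cells against peroxide damage rather than for killing them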
# Vero = experiment: cells; assay type: functional; settings: Chlorocebus sabaeus
# [6] = luciferase reporter signal suppression in cells – H4 neuroglioma cells, luminescence, dose response (AID 1990); assay type: functional, cell-based
# [7] = alpha-synuclein stem-loop luciferase translation blockers – H4 neuroglioma cells, luminescence, confirmation (AID 1988); assay type: functional, cell-based
# HEK293 [8] = experiment: cells; settings: Homo sapiens
# [9] = microbe, parasite or virus in culture; assay type: functional; settings: Mycobacterium tuberculosis
# HEK293 [10] = experiment: cells; settings: Homo sapiens; remark: listed apart in the source
# [11] = viability loss in THP-1 monocytes – THP-1 cells, cytotoxicity control for Vif-APOBEC3G degradation inhibitor project, dose response (AID 1117359); assay type: functional; settings: THP-1
# [12] = NIH-3T3 fibroblast cytotoxicity, dose response, cytotoxicity control, cell-based, fluorescence, Alamar Blue, secondary assay (AID 2327); assay type: functional;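 also: NIH-3T3 mouse fibroblasts cultured with fluconazole at 8 µg/mL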
# [13] = target: FAD-linked sulfhydryl oxidase ALR (Homo sapiens, UniProt P55789); experiment: ALR-catalysed DTT oxidation blockers – biochemical, H2O2 detection, luminescence, cherry-pick, dose response (AID 493248)
# Cysteine protease ATG4B = target: T3, Cysteine protease ATG4B (Homo sapiens, UniProt Q9Y4P1); assay type: functional;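 also: Fluorescence-based dose-response confirmation assay measuring inhibition of ATG4B activity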
# T3 sequence (Q9Y4P1 whole entry): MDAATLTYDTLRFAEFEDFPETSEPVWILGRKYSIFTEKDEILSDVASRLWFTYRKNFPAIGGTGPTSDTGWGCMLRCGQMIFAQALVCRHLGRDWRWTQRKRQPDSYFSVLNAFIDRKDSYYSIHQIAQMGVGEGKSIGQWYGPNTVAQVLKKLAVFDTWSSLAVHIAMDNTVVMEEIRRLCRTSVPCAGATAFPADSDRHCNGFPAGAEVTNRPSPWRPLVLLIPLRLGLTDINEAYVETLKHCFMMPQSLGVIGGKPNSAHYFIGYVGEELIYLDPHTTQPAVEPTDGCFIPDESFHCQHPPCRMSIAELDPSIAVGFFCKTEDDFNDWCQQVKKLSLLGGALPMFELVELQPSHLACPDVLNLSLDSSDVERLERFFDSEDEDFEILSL
# Phospholipase A2 = Phospholipase A2 (Homo sapiens, UniProt P04054); assay type: functional;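 also: confirmatory dose-response counterscreen on phospholipase A2, testing hits that came from an ultra-high-throughput screen for ATG4B inhibitors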
# [14] = Dd2 parasite growth inhibition in erythrocytes – SYBR Green, dry powder samples, set 9, dose response (AID 1159568); assay type: functional, cell-based
# [15] = growth inhibition of PfATP4-mutant resistant parasites – NITD609-resistant line, SYBR Green, dry powder, dose response (AID 1159571); assay type: functional, cell-based;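 also: parasites synchronized at ring stage by sorbitol before testing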
# [16] = P. falciparum Dd2 growth inhibitors, dose response, SYBR Green, cherry-picked samples (AID 1159567); assay type: functional, cell-based
# [17] = Dd2 malaria parasite growth inhibition potency – SYBR Green, dry powder samples, dose response (AID 1159566); assay type: functional, cell-based;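 also: potency for growth inhibition with lower SYBR green DNA signal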
# [18] = growth inhibition of yeast DHODH-expressing 3D7 parasites – SYBR Green, dry powder samples, dose response (AID 1159570); assay type: functional, cell-based;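 also: parasite growth measured after 72 hours of compound exposure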
# [19] = target: T4, Heat shock factor protein 1 (Mus musculus, UniProt P38532); experiment: enhancement of HSF1-driven luciferase signal – cell-based, NIH3T3, luminescence, dose retest, confirmation (AID 435004); assay type: functional;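 also: stress induced by proteasome inhibitor MG132 added 30 min after compound; luciferase reporter driven by HSF1 response element in NIH3T3 cells; actives raise luminescence as potentiators of the MG132 stress response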
# T4 sequence (P38532 whole entry): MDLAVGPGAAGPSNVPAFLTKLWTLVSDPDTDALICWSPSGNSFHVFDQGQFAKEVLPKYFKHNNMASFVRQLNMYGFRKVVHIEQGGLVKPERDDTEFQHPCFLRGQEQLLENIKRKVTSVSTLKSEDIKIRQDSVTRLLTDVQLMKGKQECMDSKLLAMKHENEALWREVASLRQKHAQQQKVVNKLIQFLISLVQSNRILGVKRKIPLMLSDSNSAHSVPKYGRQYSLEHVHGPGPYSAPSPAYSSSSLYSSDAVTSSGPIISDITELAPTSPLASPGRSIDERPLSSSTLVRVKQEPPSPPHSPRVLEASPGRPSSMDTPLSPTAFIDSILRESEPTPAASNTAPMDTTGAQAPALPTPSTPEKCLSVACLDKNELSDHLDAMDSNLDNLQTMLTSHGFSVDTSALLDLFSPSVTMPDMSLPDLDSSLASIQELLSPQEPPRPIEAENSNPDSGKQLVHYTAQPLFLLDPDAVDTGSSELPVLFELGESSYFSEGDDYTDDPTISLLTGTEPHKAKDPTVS
# [20] = target: Heat shock protein HSP 90-alpha (Homo sapiens, UniProt P07900); assay type: functional, organism-based
# Chain of Mu-type opioid receptor (P35372 whole entry): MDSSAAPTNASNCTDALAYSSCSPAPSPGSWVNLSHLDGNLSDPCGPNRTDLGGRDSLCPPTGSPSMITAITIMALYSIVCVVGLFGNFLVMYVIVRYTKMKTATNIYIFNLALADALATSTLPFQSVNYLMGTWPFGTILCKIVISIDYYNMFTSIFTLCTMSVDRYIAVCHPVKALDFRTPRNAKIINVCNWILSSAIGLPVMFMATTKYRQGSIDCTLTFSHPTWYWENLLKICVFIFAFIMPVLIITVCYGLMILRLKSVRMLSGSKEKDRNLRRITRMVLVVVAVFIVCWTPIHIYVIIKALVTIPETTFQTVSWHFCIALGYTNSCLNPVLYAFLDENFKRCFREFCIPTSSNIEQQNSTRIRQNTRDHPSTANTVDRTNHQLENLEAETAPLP
# Chain of Phospholipase A2 (P04054 whole entry): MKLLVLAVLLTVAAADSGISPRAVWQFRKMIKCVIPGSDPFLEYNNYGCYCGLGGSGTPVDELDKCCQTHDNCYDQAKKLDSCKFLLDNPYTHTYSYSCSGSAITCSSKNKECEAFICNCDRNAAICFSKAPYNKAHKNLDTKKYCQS
# Chain of Disintegrin and metalloproteinase domain-containing protein 17 (P78536 whole entry, the tested form may be a part): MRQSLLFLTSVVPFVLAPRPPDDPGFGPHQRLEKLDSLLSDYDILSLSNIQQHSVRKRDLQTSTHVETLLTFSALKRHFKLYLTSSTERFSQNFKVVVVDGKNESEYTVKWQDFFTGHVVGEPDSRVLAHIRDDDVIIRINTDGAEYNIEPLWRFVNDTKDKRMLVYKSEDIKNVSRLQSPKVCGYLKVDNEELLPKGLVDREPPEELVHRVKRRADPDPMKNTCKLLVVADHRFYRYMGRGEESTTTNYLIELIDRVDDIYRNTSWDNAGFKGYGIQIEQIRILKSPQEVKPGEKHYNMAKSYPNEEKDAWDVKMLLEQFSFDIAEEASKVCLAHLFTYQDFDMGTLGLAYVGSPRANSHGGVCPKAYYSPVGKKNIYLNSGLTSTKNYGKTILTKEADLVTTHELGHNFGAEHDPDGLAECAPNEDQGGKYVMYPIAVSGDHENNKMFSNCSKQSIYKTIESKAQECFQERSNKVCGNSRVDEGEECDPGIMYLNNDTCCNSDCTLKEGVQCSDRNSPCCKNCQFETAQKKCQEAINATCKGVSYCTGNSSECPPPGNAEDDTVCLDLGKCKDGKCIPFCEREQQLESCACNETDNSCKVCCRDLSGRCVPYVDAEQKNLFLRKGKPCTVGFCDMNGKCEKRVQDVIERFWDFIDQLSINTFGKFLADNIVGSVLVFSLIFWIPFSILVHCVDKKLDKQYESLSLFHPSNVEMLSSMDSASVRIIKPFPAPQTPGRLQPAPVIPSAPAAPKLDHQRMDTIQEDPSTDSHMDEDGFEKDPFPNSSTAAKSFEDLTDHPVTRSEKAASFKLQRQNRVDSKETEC
# Chain of 5-hydroxytryptamine receptor 2A (P35363 whole entry): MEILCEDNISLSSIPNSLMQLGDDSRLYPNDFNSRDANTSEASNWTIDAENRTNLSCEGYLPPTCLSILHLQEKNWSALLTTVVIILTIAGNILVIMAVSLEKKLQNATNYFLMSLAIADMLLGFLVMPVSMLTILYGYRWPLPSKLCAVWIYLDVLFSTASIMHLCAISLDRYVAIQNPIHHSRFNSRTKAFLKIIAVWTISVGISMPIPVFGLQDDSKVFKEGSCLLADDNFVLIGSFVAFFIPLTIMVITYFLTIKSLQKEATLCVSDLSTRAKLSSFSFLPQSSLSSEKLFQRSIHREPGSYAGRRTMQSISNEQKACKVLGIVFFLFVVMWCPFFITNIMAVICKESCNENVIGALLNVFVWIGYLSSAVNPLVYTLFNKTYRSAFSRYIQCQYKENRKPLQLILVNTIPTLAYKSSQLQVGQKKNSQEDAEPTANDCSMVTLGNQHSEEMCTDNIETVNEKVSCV
# Chain of Albumin (P02769 whole entry): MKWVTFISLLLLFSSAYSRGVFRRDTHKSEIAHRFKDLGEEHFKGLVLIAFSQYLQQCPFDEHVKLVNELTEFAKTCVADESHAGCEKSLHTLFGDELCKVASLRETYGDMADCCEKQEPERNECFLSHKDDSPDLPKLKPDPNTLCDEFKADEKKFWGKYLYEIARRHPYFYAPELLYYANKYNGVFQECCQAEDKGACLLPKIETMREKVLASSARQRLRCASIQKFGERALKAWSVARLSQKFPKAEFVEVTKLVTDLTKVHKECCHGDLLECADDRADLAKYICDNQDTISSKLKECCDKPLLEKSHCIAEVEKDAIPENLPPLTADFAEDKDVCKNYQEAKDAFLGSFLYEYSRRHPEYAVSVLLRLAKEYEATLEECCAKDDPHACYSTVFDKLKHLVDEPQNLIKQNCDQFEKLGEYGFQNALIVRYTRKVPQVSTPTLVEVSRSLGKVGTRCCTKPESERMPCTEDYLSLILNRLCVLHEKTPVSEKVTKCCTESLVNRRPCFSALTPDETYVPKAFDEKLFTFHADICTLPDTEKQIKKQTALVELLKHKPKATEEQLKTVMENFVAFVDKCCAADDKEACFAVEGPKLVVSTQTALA
# Chain of FAD-linked sulfhydryl oxidase ALR (P55789 whole entry): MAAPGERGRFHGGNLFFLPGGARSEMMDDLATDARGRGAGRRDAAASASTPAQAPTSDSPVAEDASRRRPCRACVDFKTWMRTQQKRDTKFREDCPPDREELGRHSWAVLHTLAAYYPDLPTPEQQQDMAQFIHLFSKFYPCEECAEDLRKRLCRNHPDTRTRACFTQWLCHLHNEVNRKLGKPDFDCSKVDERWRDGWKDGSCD
compound,measurement,setting,value
CCOC(=O)CSc1nn(C)c(=S)s1,IC50,Estrogen receptor,7.98 µM (active)
CCOc1ccc(Nc2oc(-c3ccccc3Cl)nc2C#N)cc1,IC50,Estrogen receptor,9.54 µM (active)
COc1cc(CN2CCN(c3ncccn3)CC2)cc(OC)c1,EC50,Mu-type opioid receptor,92.4 µM (inactive)
same,EC50,[1],384 nM (active)
O=C(NNC(=O)c1cc(-c2ccccc2)nc2ccccc12)Nc1cccc(Cl)c1,EC50,Streptokinase A,22.4 µM (active)
same,IC50,[2],> 69.5 µM (inactive)
same,EC50,Streptococcus,40.2 µM (active)
same,EC50,[3],3.9 µM (active)
COc1ccc(-c2cnnn2-c2ccc(NC(=O)c3ccc(S(=O)(=O)N4CCCCC4)cc3)cc2)cc1OC,IC50,Albumin,> 94.1 µM (inactive)
N#CC1=C2SCC(O)(c3ccccc3)N2C(=O)CC1c1cccs1 (stereo not given),EC50,[4],1.44 µM (active)
same,EC50,[5],1.53 µM (active)
CCNC(=O)/C(C#N)=C/c1c(N(Cc2ccccc2)Cc2ccccc2)nc2ccccn2c1=O,IC50,H9c2,> 79 µM (inactive)
COC(=O)c1ccc(N2CCC(c3cc(-c4ccc(OC)cc4)n[nH]3)CC2)c([N+](=O)[O-])c1,EC50,Streptokinase A,> 150 µM (not active)
same,IC50,[2],> 69.5 µM (inactive)
COc1ccc(-c2cc(CNS(=O)(=O)c3ccc(NC(C)=O)cc3)on2)cc1,CC50,Vero,> 25 µM (active)
COc1ccc(-c2nnc3sc(C4CCCCC4)nn23)cc1OC,EC50,[6],58.6 µM (active)
same,EC50,[7],25.6 µM (active)
same,EC50,HEK293 [8],> 59.7 µM (inactive)
same,CC50,[9],> 40 µM (active)
same,EC50,HEK293 [10],> 59.7 µM (inactive)
Cc1cccc(NC(=O)COc2cccc3c2CCNC3=O)c1,IC50,H9c2,> 79 µM (inactive)
Cc1ccc(O)c(/C=N/NC(=O)COc2ccc3c(C)cc(=O)oc3c2)c1,IC50,Albumin,> 94.1 µM (inactive)
O=[N+]([O-])c1cc(S(=O)(=O)Nc2ccccc2)ccc1N1CCN(c2ccccc2)CC1,EC50,Streptokinase A,23.9 µM (active)
same,CC50,Vero,13.5 µM (active)
same,IC50,[2],> 69.5 µM (inactive)
same,EC50,Streptococcus,> 150 µM (not active)
same,EC50,[3],16.2 µM (active)
COc1ccc(C(=O)Oc2c(CN3CCOCC3)cc(Cl)c3cccnc23)cc1,EC50,[4],5.17 µM (active)
same,CC50,[11],5.39 µM (active)
same,EC50,[5],13.4 µM (active)
same,EC50,[12],> 160 µM (inactive)
CC(C)c1ccc(NC2CCCN(C(=O)CCN3Cc4ccccc4C3=O)C2)cc1 (stereo not given),AC50,[13],4.43 µM (active)
same,IC50,Cysteine protease ATG4B,15.5 µM (active)
same,IC50,Phospholipase A2,7.98 µM (active)
Cc1cc(NS(=O)(=O)c2ccc(Nc3nc(-c4ccc(C)c(C)c4)cs3)cc2)no1,IC50,Cysteine protease ATG4B,13.1 µM (active)
same,IC50,Phospholipase A2,11.9 µM (active)
CCOc1cccc(CN2CCCC(C(=O)Nc3cccc(-n4cccn4)c3)C2)c1 (stereo not given),CC50,[11],> 40 µM (active)
c1ccc(COc2ccc(CN3CCN(c4ccccn4)CC3)cc2)cc1,EC50,Mu-type opioid receptor,92.5 µM (inactive)
same,EC50,[1],54 nM (active)
CS(=O)(=O)N1[C@H](C#N)[C@H](c2ccc(C#Cc3cccc(F)c3)cc2)[C@H]1CO,AC50,[14],10.1 µM (active)
COc1cc(OC)cc(-c2nc3ccccc3c(=O)n2OC(=O)c2ccc(Br)cc2)c1,IC50,Cysteine protease ATG4B,2.51 µM (active)
same,IC50,Phospholipase A2,4.74 µM (active)
Cc1ccccc1CN1CCN(C(=O)c2ccco2)CC1,EC50,Mu-type opioid receptor,92.5 µM (inactive)
same,EC50,[1],4890 nM (active)
CCOC(=O)c1c(C)nc2sc3c(=O)n(-c4ccc(C(C)=O)cc4)cnc3c2c1-c1ccc(OC)cc1,IC50,H9c2,> 79 µM (inactive)
COc1ccc([C@H]2C/C=C/C[C@H](C)Oc3ccccc3C(=O)N(C)[C@@H](Cc3ccccc3)C(=O)N2)c(OC)c1.COc1ccc([C@H]2C/C=C\C[C@H](C)Oc3ccccc3C(=O)N(C)[C@@H](Cc3ccccc3)C(=O)N2)c(OC)c1,AC50,[14],1.58 µM (active)
COc1ccc(C(=O)C2CCCN(C(=O)c3cnsn3)C2)c(C)c1 (stereo not given),CC50,[11],> 40 µM (active)
c1ccc2c(c1)NCC1CCCN21 (stereo not given),CC50,[11],> 40 µM (active)
CCCSc1nc(C)c(-c2csc(C(C#N)=C3CCCC3)n2)cc1C#N,IC50,Estrogen receptor,9.34 µM (active)
C[C@@H]1CN([C@H](C)CO)C(=O)c2cccc(NC(=O)c3nc4ccccc4s3)c2O[C@H]1CN(C)C(=O)Nc1ccc(C(F)(F)F)cc1,AC50,[15],816 nM (active)
same,AC50,[16],2.06 µM (active)
same,AC50,[17],1.08 µM (active)
same,AC50,[18],1.18 µM (active)
C[C@@H]1CCCCO[C@H](CN(C)S(=O)(=O)c2ccc(F)cc2)[C@H](C)CN([C@H](C)CO)C(=O)c2cc(N(C)C)ccc2O1,AC50,[14],4.45 µM (active)
COc1ccc(C2NC3=C(CCCC3)C(C#N)(C#N)C2(C#N)C#N)cc1 (stereo not given),EC50,[4],> 20 µM (not active)
same,EC50,[5],> 20 µM (not active)
O=C(N/N=C/c1ccccn1)c1cc(-c2ccc(Br)cc2)nc2ccccc12,CC50,Vero,9.94 µM (active)
same,EC50,[19],4.85 µM (active)
same,AC50,[20],2.24 µM (active)
COc1ccc(N(CC(=O)Nc2cccc(C(C)=O)c2)S(=O)(=O)c2ccc(NC(C)=O)cc2)cc1,IC50,H9c2,> 79 µM (inactive)
